According to ChEMBL document CHEMBL1155968, “Synthesis, anticonvulsant and CNS depressant activity of some new bioactive 1-(4-substituted-phenyl)-3-(4-oxo-2-phenyl/ethyl-4H-quinazolin-3-yl)-urea” (Eur J Med Chem, 2009):
Calls of active or inactive are those of the source. The calls are words filed in the database; no cut-off is given here.

Experiments:
Rattus norvegicus [1] = assay: Antidepressant activity in Wistar rat assessed as increase in immobility time at 100 mg/kg, ip after 60 min by forced swim pool method; type: functional; conditions: route intraperitoneal
Mus musculus [2] = assay: Neurotoxicity in ip dosed albino mouse assessed as minimal motor impairment after 0.5 hrs by rotarod test; type: toxicity, organism-based; conditions: in vivo
Mus musculus [3] = assay: Behavioral activity in albino mouse assessed as decrease in locomotor activity at 100 mg/kg, ip by actophotometer; type: functional; conditions: route intraperitoneal
Mus musculus [4] = assay: Anticonvulsant activity in ip dosed albino mouse assessed as inhibition of maximal electric shock-induced seizures after 0.5 hrs; type: functional
Mus musculus [5] = assay: Anticonvulsant activity in ip dosed albino mouse assessed as inhibition of subcutaneous pentylenetetrazole-induced seizure after 0.5 hrs; type: functional
Mus musculus [6] = assay: Neurotoxicity in ip dosed albino mouse assessed as minimal motor impairment after 4 hrs by rotarod test; type: toxicity, organism-based; conditions: in vivo
Mus musculus [7] = assay: Anticonvulsant activity in ip dosed albino mouse assessed as inhibition of subcutaneous pentylenetetrazole-induced seizure after 4 hrs; type: functional
Mus musculus [8] = assay: Anticonvulsant activity in ip dosed albino mouse assessed as inhibition of maximal electric shock-induced seizures after 4 hrs; type: functional
Rattus norvegicus [9] = assay: Antidepressant activity against Wistar rat assessed as increase in immobility time at 30 mg/kg, ip after 60 mins by forced swim pool method; type: functional; conditions: route intraperitoneal

SMILES	Time (Rattus norvegicus [1])	Activity (Mus musculus [2])	inhibition in vivo at 100 mg/kg (Mus musculus [3])	Activity (Mus musculus [4])	Activity (Mus musculus [5])	Activity (Mus musculus [6])	Activity (Mus musculus [7])	Activity (Mus musculus [8])	Time (Rattus norvegicus [9])
O=C(Nc1ccc(Br)cc1)Nn1c(-c2ccccc2)nc2ccccc2c1=O	228.53 s	300 mg/kg	58%	100 mg/kg	300 mg/kg	Not Active	inactive	300 mg/kg	
CCOc1ccc(NC(=O)Nn2c(-c3ccccc3)nc3ccccc3c2=O)cc1	273.22 s	100 mg/kg	53%	inactive	inactive	Not Active	inactive	inactive	
Cc1ccc(NC(=O)Nn2c(-c3ccccc3)nc3ccccc3c2=O)cc1	205.22 s	300 mg/kg	54%	inactive	inactive	Not Active	inactive	inactive	
O=C(Nc1ccc(Cl)cc1)Nn1c(-c2ccccc2)nc2ccccc2c1=O	218.5 s	300 mg/kg	55%	300 mg/kg	300 mg/kg	Not Active	inactive	inactive	
CCc1nc2ccccc2c(=O)n1NC(=O)Nc1cccc(C)c1	165.63 s	Not Active	53%	inactive	inactive	Not Active	inactive	inactive	
CCc1nc2ccccc2c(=O)n1NC(=O)Nc1ccc(OC)cc1	141.17 s	300 mg/kg	48%	inactive	inactive		inactive	inactive	
CCc1nc2ccccc2c(=O)n1NC(=O)Nc1ccc(F)cc1	248.32 s	Not Active	51%	inactive	inactive	Not Active	inactive	inactive	
O=C(Nc1ccc([N+](=O)[O-])cc1)Nn1c(-c2ccccc2)nc2ccccc2c1=O	199.19 s	300 mg/kg	42%	300 mg/kg	300 mg/kg	Not Active	inactive	inactive	
CCc1nc2ccccc2c(=O)n1NC(=O)Nc1ccccc1	170.1 s	300 mg/kg	54%	100 mg/kg	300 mg/kg		inactive	inactive	
CCc1nc2ccccc2c(=O)n1NC(=O)Nc1ccc([N+](=O)[O-])cc1	212.72 s	100 mg/kg	41%	300 mg/kg	inactive	Not Active	inactive	inactive	
O=C(Nc1ccccc1)Nn1c(-c2ccccc2)nc2ccccc2c1=O	186.46 s	300 mg/kg	56%	inactive	inactive	Not Active	inactive	inactive	
O=C(Nc1ccc(F)cc1)Nn1c(-c2ccccc2)nc2ccccc2c1=O	211.14 s	Not Active	54%	inactive	inactive	Not Active	inactive	inactive	
NC(=O)N1c2ccccc2C=Cc2ccccc21 [CARBAMAZEPINE]		Not Active		inactive	300 mg/kg	Not Active	inactive	inactive	168.32 s
CCc1ccc(NC(=O)Nn2c(CC)nc3ccccc3c2=O)cc1	227.54 s	Not Active	58%	inactive	inactive	Not Active	inactive	inactive	
CCCC(CCC)C(=O)[O-].[Na+] [VALPROATE SODIUM]		100 mg/kg		100 mg/kg	30 mg/kg	300 mg/kg	300 mg/kg	30 mg/kg	
CCOc1ccc(NC(=O)Nn2c(CC)nc3ccccc3c2=O)cc1	161.43 s	300 mg/kg	50%	300 mg/kg	inactive	300 mg/kg	inactive	inactive	
COc1ccc(NC(=O)Nn2c(-c3ccccc3)nc3ccccc3c2=O)cc1	229.15 s	300 mg/kg	52%	inactive	300 mg/kg	Not Active	inactive	inactive	
CCc1ccc(NC(=O)Nn2c(-c3ccccc3)nc3ccccc3c2=O)cc1	213.13 s	Not Active	61%	inactive	inactive	Not Active	inactive	inactive	
Cc1ccccc1NC(=O)Nn1c(-c2ccccc2)nc2ccccc2c1=O	162.13 s	Not Active	59%	inactive	inactive	Not Active	inactive	inactive	
CCc1nc2ccccc2c(=O)n1NC(=O)Nc1ccc(Br)cc1	222.2 s	300 mg/kg	54%	inactive		Not Active		inactive	
CCc1nc2ccccc2c(=O)n1NC(=O)Nc1ccc(I)cc1	274.4 s	Not Active	55%	inactive		Not Active	inactive	inactive	
O=C1NC(=O)C(c2ccccc2)(c2ccccc2)N1 [PHENYTOIN]		100 mg/kg	69%	30 mg/kg	100 mg/kg	300 mg/kg	300 mg/kg	100 mg/kg	
CCC1(c2ccccc2)C(=O)NC(=O)NC1=O [PHENOBARBITAL]		Not Active		inactive	300 mg/kg	Not Active	inactive	inactive	
O=C(Nc1ccc(I)cc1)Nn1c(-c2ccccc2)nc2ccccc2c1=O	181.15 s	300 mg/kg	60%	inactive		Not Active		inactive	
CCc1nc2ccccc2c(=O)n1NC(=O)Nc1ccccc1C	186.3 s	Not Active	54%	inactive	inactive	Not Active	inactive	inactive	
CCc1nc2ccccc2c(=O)n1NC(=O)Nc1ccc(C)cc1	243.42 s	300 mg/kg	55%	100 mg/kg	inactive	Not Active	inactive	300 mg/kg	
Cc1cccc(NC(=O)Nn2c(-c3ccccc3)nc3ccccc3c2=O)c1	171.24 s	Not Active	59%	inactive	inactive	Not Active	inactive	inactive	
CCc1nc2ccccc2c(=O)n1NC(=O)Nc1ccc(Cl)cc1	180.3 s	Not Active	52%	inactive	inactive		inactive	inactive	
